Here are results for four compounds from paper PMC2810428 (Journal of medicinal chemistry, 2010).

The test system of one assay is L1210 and B16 cells. Conditions: read-out: reported IC50 values for L1210 and B16 cells; ref [3]–[5]; cited from earlier work.
Another assay relates to WTβIII. Conditions: WTβIII vs HeLa pair; ref [32]; cited from earlier work.
A further assay relates to SK-OV-3-MDR 1–6/6. Particulars: SK-OV-3-MDR 1–6/6 vs SK-OV-3 pair; ref [32]; cited from earlier work.
The subject of another assay is L1210 cells. As to the kind of experiment: Inhibition of L1210 cell growth. In kind it is cell-based, murine. Conditions: L1210 IC50, 9b versus 9a.
Another assay concerns MDA-MB-435 cells. As to the kind of experiment: Cell cycle analysis by flow cytometry. In kind it is cell-based, human. Conditions: paclitaxel positive control (0.0125 µM), data not shown.

As to `COc1ccc(/C=C\c2cc(OC)c(OC)c(OC)c2)cc1O` [Compound 1, Combretastatin A-4], in the assay with L1210 and B16 cells, the IC50 is 3 to 7 nM.
Consider `COc1cc2c(cc1O)CC[C@@H]1[C@@H]2CC[C@]2(C)[C@@H](O)CC[C@@H]12` [2-methoxyestradiol], for which the results for the “Rr (relative resistance)” value in the assay on WTβIII and in the assay with SK-OV-3-MDR 1–6/6 were 1.0 and 2.6, respectively.
For `COc1cc(C2=NN(C(C)=O)C(c3cccc([N+](=O)[O-])c3)O2)cc(OC)c1OC` (stereo not shown) [Compound 9b], the “fold decrease in potency on shifting nitro group to the 3’ position” value with L1210 cells is 9 fold.
`CC(=O)O[C@H]1C(=O)[C@@]2(C)[C@H]([C@H](OC(=O)c3ccccc3)[C@]3(O)C[C@H](OC(=O)[C@H](O)[C@@H](NC(=O)c4ccccc4)c4ccccc4)C(C)=C1C3(C)C)[C@]1(OC(C)=O)CO[C@@H]1C[C@@H]2O` [paclitaxel]: the entries for the “Rr (relative resistance)” value in the assay with WTβIII and in the assay on SK-OV-3-MDR 1–6/6 were 4.7 and 860, respectively. For the same compound, the cell cycle distribution entry with MDA-MB-435 cells is recorded as “identical effect”.
